Consider 15 molecules from US9677045B2, “Microorganisms and methods for production of 4-hydroxybutyrate, 1,4-butanediol and related compounds” (priority 2012, dated 2017).

One assay relates to Alcohol dehydrogenase. Kind of assay: Alcohol dehydrogenase (ADH) assay in the reductive direction, cell extracts. To be noted: extracts of MG1655 lacI^Q with pZA33.
Another assay concerns Aldehyde dehydrogenase. Kind of assay: Aldehyde dehydrogenase (ALD) assay in the reductive direction, cell extracts. The settings on record: extracts of MG1655 lacI^Q with pZA33.
For a further assay, the target named is homoserine kinase (Escherichia coli, UniProt P00547). To be noted: cited from earlier work; for % kcat: relative to L-homoserine.
Assay [1] has as its system 4-HB to BDO conversion pathway. The experiment in a line: Production of BDO from 10 mM 4-HB in recombinant E. coli strains. To be noted: for BDO: adhE2 in pZE13, aerobic procedure.
Experimental: For the BDO production experiments, cat2 from Porphyromonas gingivalis W83 (gene 0034) was included on pZA33 for the conversion of 4-HB to 4-HB-CoA, while the candidate dehydrogenase genes were expressed on pZE13. The host strain was MG1655 lacI^Q. Along with the alcohol and aldehyde dehydrogenase candidates, we also tested the ability of CoA-dependent succinic semialdehyde dehydrogenases (sucD) to function in this step, due to the similarity of the substrates. Cells were grown to an OD of about 0.5 in LB medium supplemented with 10 mM 4-HB, induced with 1 mM IPTG, and culture broth samples taken after 24 hours and analyzed for BDO as described below.
Finally, the construct was tested for participation in the conversion of 4-HB to BDO. Host strains were transformed with the pZA33-0020-0021 construct described and pZE13-0002, and compared to use of cat2 in BDO production using the aerobic procedure used above in FIG. 5.

homoserine kinase, sequence (P00547 whole entry): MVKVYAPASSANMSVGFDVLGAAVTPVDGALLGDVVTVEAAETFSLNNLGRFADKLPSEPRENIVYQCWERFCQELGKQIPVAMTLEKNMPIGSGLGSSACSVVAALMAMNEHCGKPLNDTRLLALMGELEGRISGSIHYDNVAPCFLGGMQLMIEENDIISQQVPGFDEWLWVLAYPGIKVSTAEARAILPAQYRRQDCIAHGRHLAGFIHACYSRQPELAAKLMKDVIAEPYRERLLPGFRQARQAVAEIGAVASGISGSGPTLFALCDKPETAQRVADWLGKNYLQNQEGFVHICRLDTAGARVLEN
Experimental for Alcohol dehydrogenase: (§1) In Vitro Enzyme Assays. To obtain crude extracts for activity assays, cells were harvested by centrifugation at 4,500 rpm (Beckman-Coulter, Allegera X-15R) for 10 min. The pellets were resuspended in 0.3 mL BugBuster (Novagen) reagent with benzonase and lysozyme, and lysis proceeded for 15 minutes at room temperature with gentle shaking. Cell-free lysate was obtained by centrifugation at 14,000 rpm (Eppendorf centrifuge 5402) for 30 min at 4° C. Cell protein in the sample was determined using the method of Bradford et al., Anal. Biochem. 72:248-254 (1976), and specific enzyme assays conducted as described below. Activities are reported in Units/mg protein, where a unit of activity is defined as the amount of enzyme required to convert 1 mmol of substrate in 1 min. at room temperature. In general, reported values are averages of at least 3 replicate assays.
(§2) Alcohol (ADH) and aldehyde (ALD) dehydrogenase was assayed in the reductive direction using a procedure adapted from several literature sources (Durre et al., FEMS Microbiol. Rev. 17:251-262 (1995); Palosaari and Rogers, J. Bacteriol. 170:2971-2976 (1988) and Welch et al., Arch. Biochem. Biophys. 273:309-318 (1989). The oxidation of NADH is followed by reading absorbance at 340 nm every four seconds for a total of 240 seconds at room temperature. The reductive assays were performed in 100 mM MOPS (adjusted to pH 7.5 with KOH), 0.4 mM NADH, and from 1 to 50 μl of cell extract. The reaction is started by adding the following reagents: 100 μl of 100 mM acetaldehyde or butyraldehyde for ADH, or 100 μl of 1 mM acetyl-CoA or butyryl-CoA for ALD. The Spectrophotometer is quickly blanked and then the kinetic read is started. The resulting slope of the reduction in absorbance at 340 nm per minute, along with the molar extinction coefficient of NAD(P)H at 340 nM (6000) and the protein concentration of the extract, can be used to determine the specific activity.
(§3) Gene candidates for the 4-HB to BDO conversion pathway were next tested for activity when expressed in the E. coli host MG1655 lacI^Q. Recombinant strains containing each gene candidate expressed on pZA33 were grown in the presence of 0.25 mM IPTG for four hours at 37° C. to fully induce expression of the enzyme. Four hours after induction, cells were harvested and assayed for ADH and ALD activity as described above.
Experimental for Aldehyde dehydrogenase: as §1, §2, §3

With “0011: Gene ID 0011: adhE, E. coli, Aldehyde/alcohol dehydrogenase [Sample 0011]”, the Alcohol dehydrogenase activity was 0.0093 μmol min^−1 mg cell protein^−1 in the assay on Alcohol dehydrogenase (Substrate Acetaldehyde) and 0.0265 μmol min^−1 mg cell protein^−1 in the assay with Alcohol dehydrogenase (Substrate Butyraldehyde). The Aldehyde dehydrogenase activity with Aldehyde dehydrogenase (Substrate Acetyl-CoA) is given as 0.0095 μmol min^−1 mg cell protein^−1; in the assay on Aldehyde dehydrogenase (Substrate Butyryl-CoA) it was 0.0069 μmol min^−1 mg cell protein^−1.

Consider `N[C@H](CCO)C(=O)O` [D-homoserine], for which, on homoserine kinase, the kcat was 8.3 ± 1.1 and the “% kcat” value is given as 32%.

In the case of `N[C@H](CO)CCO` [L-2-amino-1,4-butanediol], on homoserine kinase, the kcat was 2.0 ± 0.5 and the “% kcat” value is 7.9%.

Turning to `N[C@@H](CCCO)C(=O)O` [L-2-amino-5-hydroxyvalerate], at homoserine kinase, the kcat is recorded as 2.5 ± 0.4 and the “% kcat” value is given as 9.9%.

`N[C@@H](CC=O)C(=O)O` [L-aspartate β-semialdehyde]: at homoserine kinase, the kcat is listed as 2.1 ± 0.1 and the “% kcat” value is 8.2%.

Consider `CCOC(=O)[C@@H](N)CCO` [L-homoserine ethyl ester], for which, at homoserine kinase, the kcat is listed as 13.6 ± 0.8 and the “% kcat” value is recorded as 74%.

Turning to `CC(C)COC(=O)[C@@H](N)CCO` [L-homoserine isobutyl ester], on homoserine kinase, the kcat is reported as 16.4 ± 0.8 and the “% kcat” value was 84%.

Consider `CC(C)OC(=O)[C@@H](N)CCO` [L-homoserine isopropyl ester], for which, at homoserine kinase, the kcat is 13.6 ± 1.4 and the “% kcat” value was 74%.

With `COC(=O)[C@@H](N)CCO` [L-homoserine methyl ester], on homoserine kinase, the kcat is reported as 14.7 ± 2.6 and the “% kcat” value is 80%.

As for `CCCOC(=O)[C@@H](N)CCO` [L-homoserine n-propyl ester], at homoserine kinase, the kcat is listed as 14.0 ± 0.4 and the “% kcat” value was 76%.

On to `N[C@@H](CCO)C(=O)O` [L-homoserine], for which, at homoserine kinase, the kcat was 18.3 ± 0.1 and the “% kcat” value was 100%.

Turning to `CCCCOC(=O)[C@@H](N)CCO` [L-homserine n-butyl ester], at homoserine kinase, the kcat is listed as 29.1 ± 1.2 and the “% kcat” value is reported as 160%.

B1: 0034: Gene ID 0034: cat2, Porphyromonas gingivalis W83, 4-hydroxybutyrate coenzyme A transferase (protein, listed as Porphyromonas gingivalis)
chain: MKDVLAEYASRIVSAEEAVKHIKNGERVALSHAAGVPQSCVDALVQQADLFQNVEIYHMLCLGEGKYMAPEMAPHFRHITNFVGGNSRKAVEENRADFIPVFFYEVPSMIRKDILHIDVAIVQLSMPDENGYCSFGVSCDYSKPAAESAHLVIGEINRQMPYVHGDNLIHISKLDYIVMADYPIYSLAKPKIGEVEEAIGRNCAELIEDGATLQLGIGAIPDAALLFLKDKKDLGIHTEMFSDGVVELVRSGVITGKKKTLHPGKMVATFLMGSEDVYHFIDKNPDVELYPVDYVNDPRVIAQNDNMVSINSCIEIDLMGQVVSECIGSKQFSGTGGQVDYVRGAAWSKNGKSIMAIPSTAKNGTASRIVPIIAEGAAVTTLRNEVDYVVTEYGIAQLKGKSLRQRAEALIAIAHPDFREELTKHLRKRFG
B1: in assay [1] (Host MG1655 lacI^Q), the BDO/OD is 0.042 and the BDO was 0.827 µM. For the same molecule, in assay [1] (Host MG1655 ΔadhE lacI^Q), the BDO/OD was 0.166 and the BDO was found to be 2.084 µM.

B2: 0026: Gene ID 0026: bdhA, Clostridium acetobutylicum ATCC 824, Butanol dehydrogenase (protein, UniProt Q04944 1-389, looked up)
NADH-dependent butanol …: MLSFDYSIPTKVFFGKGKIDVIGEEIKKYGSRVLIVYGGGSIKRNGIYDRATAILKENNIAFYELSGVEPNPRITTVKKGIEICRENNVDLVLAIGGGSAIDCSKVIAAGVYYDGDTWDMVKDPSKITKVLPIASILTLSATGSEMDQIAVISNMETNEKLGVGHDDMRPKFSVLDPTYTFTVPKNQTAAGTADIMSHTFESYFSGVEGAYVQDGIAEAILRTCIKYGKIAMEKTDDYEARANLMWASSLAINGLLSLGKDRKWSCHPMEHELSAYYDITHGVGLAILTPNWMEYILNDDTLHKFVSYGINVWGIDKNKDNYEIAREAIKNTREYFNSLGIPSKLREVGIGKDKLELMAKQAVRNSGGTIGSLRPINAEDVLEIFKKSY
As to B2, the Alcohol dehydrogenase activity in the assay on Alcohol dehydrogenase (Substrate Acetaldehyde) is 0.0008 μmol min^−1 mg cell protein^−1; in the assay on Alcohol dehydrogenase (Substrate Butyraldehyde) it was 0.0024 μmol min^−1 mg cell protein^−1. Also, the Aldehyde dehydrogenase activity was 0.0005 μmol min^−1 mg cell protein^−1 with Aldehyde dehydrogenase (Substrate Acetyl-CoA) and 0 μmol min^−1 mg cell protein^−1 in the assay with Aldehyde dehydrogenase (Substrate Butyryl-CoA).

B3: 0013: Gene ID 0013: bdhB, Clostridium acetobutylicum ATCC 824, Butanol dehydrogenase II (protein, UniProt Q04945 1-390, looked up)
NADH-dependent butanol …: MVDFEYSIPTRIFFGKDKINVLGRELKKYGSKVLIVYGGGSIKRNGIYDKAVSILEKNSIKFYELAGVEPNPRVTTVEKGVKICRENGVEVVLAIGGGSAIDCAKVIAAACEYDGNPWDIVLDGSKIKRVLPIASILTIAATGSEMDTWAVINNMDTNEKLIAAHPDMAPKFSILDPTYTYTVPTNQTAAGTADIMSHIFEVYFSNTKTAYLQDRMAEALLRTCIKYGGIALEKPDDYEARANLMWASSLAINGLLTYGKDTNWSVHLMEHELSAYYDITHGVGLAILTPNWMEYILNNDTVYKFVEYGVNVWGIDKEKNHYDIAHQAIQKTRDYFVNVLGLPSRLRDVGIEEEKLDIMAKESVKLTGGTIGNLRPVNASEVLQIFKKSV
In the case of B3, the Alcohol dehydrogenase activity in the assay on Alcohol dehydrogenase (Substrate Acetaldehyde) was 0.0142 μmol min^−1 mg cell protein^−1; in the assay with Alcohol dehydrogenase (Substrate Butyraldehyde) it was 0.0130 μmol min^−1 mg cell protein^−1.
